Here are results for 9 molecules from patent US11339130B1 (Blade Therapeutics, Inc., priority 2016, dated 2022).

One assay has as its target T1, Human Calpain 2/NS1 (Homo sapiens, UniProt P17655).
T1 sequence (P17655 1-700): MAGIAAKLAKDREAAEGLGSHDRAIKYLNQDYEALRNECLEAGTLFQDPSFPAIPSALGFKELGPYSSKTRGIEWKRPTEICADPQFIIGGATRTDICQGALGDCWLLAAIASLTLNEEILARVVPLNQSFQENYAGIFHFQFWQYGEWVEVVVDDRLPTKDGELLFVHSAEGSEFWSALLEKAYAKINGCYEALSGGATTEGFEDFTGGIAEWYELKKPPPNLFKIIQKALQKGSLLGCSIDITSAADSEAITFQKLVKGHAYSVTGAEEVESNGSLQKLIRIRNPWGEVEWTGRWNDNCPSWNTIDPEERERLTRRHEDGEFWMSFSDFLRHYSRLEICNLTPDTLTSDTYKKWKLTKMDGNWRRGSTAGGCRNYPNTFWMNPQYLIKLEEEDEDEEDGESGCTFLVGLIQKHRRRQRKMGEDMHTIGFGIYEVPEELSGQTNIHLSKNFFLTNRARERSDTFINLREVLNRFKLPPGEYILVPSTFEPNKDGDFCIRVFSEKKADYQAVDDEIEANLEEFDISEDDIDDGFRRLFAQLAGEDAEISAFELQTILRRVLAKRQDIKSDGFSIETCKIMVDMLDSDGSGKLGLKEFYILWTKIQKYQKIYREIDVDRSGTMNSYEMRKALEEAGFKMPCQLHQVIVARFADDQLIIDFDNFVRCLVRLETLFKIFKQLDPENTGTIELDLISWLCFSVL
T1 sequence (P04632 1-268 partner): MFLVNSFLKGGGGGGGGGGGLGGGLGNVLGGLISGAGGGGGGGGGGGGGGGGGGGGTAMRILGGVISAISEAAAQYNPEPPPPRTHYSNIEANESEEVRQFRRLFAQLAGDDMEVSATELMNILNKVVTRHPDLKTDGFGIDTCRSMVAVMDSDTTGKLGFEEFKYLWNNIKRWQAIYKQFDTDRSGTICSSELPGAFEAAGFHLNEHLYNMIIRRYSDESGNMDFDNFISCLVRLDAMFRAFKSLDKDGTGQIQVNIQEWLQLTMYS
Nature of the assay: Calpain inhibition continuous fluorescence (FRET) assay, Human Calpain 2/NS1. The conditions noted are these: read-out: Human Calpain 2/NS1 IC50. It is filed as biochemical. The gist of the method: (§1)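 Fluorescence increase from the cleaved 5-FAM/QXL 520 substrate, read at 490/520 nm, gave activity. Calcium was supplied with the substrate to activate the enzyme in situ after a 25C enzyme-inhibitor preincubation, and IC50s were fit from initial slopes.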

The test system of assay [1] is Calpain activity in SH-SY5Y cells (SBDP-150). The assay is described as follows: SH-SY5Y Spectrin western blot assay (SBDP-150 breakdown product, A23187-induced). It is filed as cell-based. The conditions noted are these: Homo sapiens, SH-SY5Y cells, read-out: SH-SY5Y Spectrin IC50. For orientation: A western blot detects proteins with antibodies after separation by electrophoresis.

The target of another assay is T2, Human Calpain 9/NS1 (Homo sapiens, UniProt O14815).
T2 sequence (O14815 1-690): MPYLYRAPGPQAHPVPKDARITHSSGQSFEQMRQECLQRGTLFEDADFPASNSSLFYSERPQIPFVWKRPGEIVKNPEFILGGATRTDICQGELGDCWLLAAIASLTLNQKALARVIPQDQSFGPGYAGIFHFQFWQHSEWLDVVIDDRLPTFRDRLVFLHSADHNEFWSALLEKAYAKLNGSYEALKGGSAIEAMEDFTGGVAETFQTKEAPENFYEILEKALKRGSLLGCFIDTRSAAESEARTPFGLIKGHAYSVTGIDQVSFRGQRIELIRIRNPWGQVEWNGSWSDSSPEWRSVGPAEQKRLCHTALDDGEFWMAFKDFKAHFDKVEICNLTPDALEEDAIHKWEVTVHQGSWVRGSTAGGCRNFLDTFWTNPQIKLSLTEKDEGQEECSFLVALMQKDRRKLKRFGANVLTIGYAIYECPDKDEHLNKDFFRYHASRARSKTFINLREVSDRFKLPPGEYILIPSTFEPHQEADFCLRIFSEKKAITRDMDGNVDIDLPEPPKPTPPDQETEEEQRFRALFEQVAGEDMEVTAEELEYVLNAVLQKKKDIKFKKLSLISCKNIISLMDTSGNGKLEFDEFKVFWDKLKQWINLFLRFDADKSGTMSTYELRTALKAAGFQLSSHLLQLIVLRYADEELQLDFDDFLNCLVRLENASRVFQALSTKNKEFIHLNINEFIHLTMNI
T2 sequence (P04632 1-268 partner): T1 sequence (P04632 1-268 partner)
Nature of the assay: Calpain inhibition continuous fluorescence (FRET) assay, Human Calpain 9/NS1. It is filed as biochemical. The conditions noted are these: read-out: Human Calpain 9/NS1 IC50. The gist of the method:
as §1

A further assay has as its target T3, Human Calpain 1/NS1 (Homo sapiens, UniProt P07384).
T3 sequence (P07384 1-714): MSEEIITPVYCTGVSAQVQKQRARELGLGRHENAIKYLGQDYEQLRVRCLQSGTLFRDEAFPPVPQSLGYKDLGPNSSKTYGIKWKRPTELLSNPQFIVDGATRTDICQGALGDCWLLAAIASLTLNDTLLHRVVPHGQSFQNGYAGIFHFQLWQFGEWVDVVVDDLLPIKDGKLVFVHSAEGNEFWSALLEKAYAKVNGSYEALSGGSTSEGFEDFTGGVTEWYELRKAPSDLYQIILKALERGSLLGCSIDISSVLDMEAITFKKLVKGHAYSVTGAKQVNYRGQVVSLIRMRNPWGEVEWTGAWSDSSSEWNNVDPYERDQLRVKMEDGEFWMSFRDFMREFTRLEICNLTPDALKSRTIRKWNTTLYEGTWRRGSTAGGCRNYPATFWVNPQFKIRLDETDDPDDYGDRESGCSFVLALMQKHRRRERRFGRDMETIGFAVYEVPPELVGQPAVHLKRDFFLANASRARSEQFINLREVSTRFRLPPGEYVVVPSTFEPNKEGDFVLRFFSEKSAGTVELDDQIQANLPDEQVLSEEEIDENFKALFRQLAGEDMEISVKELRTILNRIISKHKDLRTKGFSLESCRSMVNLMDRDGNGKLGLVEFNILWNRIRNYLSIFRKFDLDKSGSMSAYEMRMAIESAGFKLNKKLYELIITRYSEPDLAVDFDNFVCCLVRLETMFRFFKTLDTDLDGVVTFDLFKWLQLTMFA
T3 sequence (P04632 1-268 partner): T1 sequence (P04632 1-268 partner)
Nature of the assay: Calpain inhibition continuous fluorescence (FRET) assay, Human Calpain 1/NS1. The class given is biochemical. The conditions noted are these: read-out: Human Calpain 1/NS1 IC50. The method, boiled down:
as §1

In assay [2] the test system is Calpain activity in SH-SY5Y cells. Nature of the assay: SH-SY5Y + AMC fluorescence assay (Suc-LLVY-AMC substrate). The conditions noted are these: read-out: SH-SY5Y + AMC IC50. The class given is cell-based.
Where [3] appears, read: A23187-induced SBDP-150, western blot.
[4] abbreviates: Column D, A23187-induced SBDP-150.

SMILES strings stand for the structures. Read-outs that look alike come from different tables or passages of the source. Where only a bound is given, the exact number is not on record here.

Turning to `NC(=O)C(=O)C(Cc1ccccc1)NC(=O)c1cc(C(F)(F)C(F)(F)F)nn1-c1ccccc1` (stereo not drawn) [Compound 342, N-(4-amino-3,4-dioxo-1-phenylbutan-2-yl)-3-(perfluoroethyl)-1-phenyl-1H-pyrazole-5-carboxamide], the IC50 is below 3 µM on Human Calpain 2/NS1; 10 to 25 µM in assay [1] (setting [3]); below 3 µM on Human Calpain 9/NS1; below 3 µM on Human Calpain 1/NS1; 10 to 25 µM in assay [2].
Turning to `NC(=O)C(=O)C(CCc1ccccc1)NC(=O)c1nsnc1-c1ccccc1` (stereo not drawn) [Compound 463, N-(1-amino-1,2-dioxo-5-phenylpentan-3-yl)-4-phenyl-1,2,5-thiadiazole-3-carboxamide], the IC50 on Human Calpain 2/NS1 was below 3 µM; in assay [1] (setting [3]), below 10 µM; at Human Calpain 9/NS1 it was below 3 µM; on Human Calpain 1/NS1, below 3 µM; in assay [2] it was above 25 µM.
On to `Cc1cc(C(=O)N[C@@H](Cc2ccccc2)C(=O)C(N)=O)c(-c2ccccc2)s1` [Compound 222, (S)—N-(4-amino-3,4-dioxo-1-phenylbutan-2-yl)-5-methyl-2-phenylthiophene-3-carboxamide], for which the IC50 was below 3 µM at Human Calpain 2/NS1 (Column B); 10 to 25 µM in assay [1] (setting [4]); below 3 µM at Human Calpain 9/NS1 (Column C); below 3 µM at Human Calpain 1/NS1 (Column A); above 25 µM in assay [2] (Column E).
As for `NC(=O)C(=O)C(Cc1ccccc1)NC(=O)c1cc(C(F)(F)F)nn1-c1ncccn1` (stereo not drawn) [Compound 349, N-(4-amino-3,4-dioxo-1-phenylbutan-2-yl)-1-(pyrimidin-2-yl)-3-(trifluoromethyl)-1H-pyrazole-5-carboxamide], the IC50 at Human Calpain 2/NS1 was below 3 µM; in assay [1] (setting [3]), above 25 µM; at Human Calpain 9/NS1, below 3 µM; on Human Calpain 1/NS1 it was below 3 µM; in assay [2], below 10 µM.
Regarding `NC(=O)C(=O)[C@H](Cc1ccccc1)NC(=O)c1oc(C(F)(F)F)nc1-c1ccccc1` [Compound 255, (S)—N-(4-amino-3,4-dioxo-1-phenylbutan-2-yl)-4-phenyl-2-(trifluoromethyl)oxazole-5-carboxamide], the IC50 was below 3 µM at Human Calpain 2/NS1 (Column B); below 10 µM in assay [1] (setting [4]); below 3 µM on Human Calpain 9/NS1 (Column C); below 3 µM at Human Calpain 1/NS1 (Column A); below 10 µM in assay [2] (Column E).
For the molecule `Cn1cc(C(=O)N[C@@H](Cc2ccccc2)C(=O)C(=O)NCC(N)=O)c(-c2ccccc2)n1` [Compound 339, (S)—N-(4-((2-amino-2-oxoethyl)amino)-3,4-dioxo-1-phenylbutan-2-yl)-1-methyl-3-phenyl-1H-pyrazole-4-carboxamide], the IC50 on Human Calpain 2/NS1 was below 3 µM; in assay [1] (setting [3]) it was above 25 µM; at Human Calpain 9/NS1, below 3 µM; at Human Calpain 1/NS1 it was below 3 µM; in assay [2] it was 10 to 25 µM.
With `C#Cc1nccc(-n2nc(C)cc2C(=O)N[C@@H](Cc2ccccc2)C(=O)CF)n1` [Compound 433, (S)-1-(2-ethynylpyrimidin-4-yl)-N-(4-fluoro-3-oxo-1-phenylbutan-2-yl)-3-methyl-1H-pyrazole-5-carboxamide], the IC50 at Human Calpain 2/NS1 was 3 to 10 µM; in assay [1] (setting [3]), 10 to 25 µM; on Human Calpain 9/NS1 it was above 10 µM; on Human Calpain 1/NS1, 3 to 10 µM; in assay [2], above 25 µM.
For the molecule `Cc1cc(C)cc(C[C@H](NC(=O)c2oc(C)nc2-c2ccccc2)C(=O)C(N)=O)c1` [Compound 388, (S)—N-(4-amino-1-(3,5-dimethylphenyl)-3,4-dioxobutan-2-yl)-2-methyl-4-phenyloxazole-5-carboxamide], the IC50 at Human Calpain 2/NS1 is below 3 µM; in assay [1] (setting [3]) it was below 10 µM; at Human Calpain 9/NS1, below 3 µM; at Human Calpain 1/NS1, below 3 µM; in assay [2] it was 10 to 25 µM.
For `Cn1cc(C(=O)N[C@@H](Cc2ccccc2)C(=O)C(N)=O)c(-c2cncnc2)n1` [Compound 173, (S)—N-(4-amino-3,4-dioxo-1-phenylbutan-2-yl)-1-methyl-3-(pyrimidin-5-yl)-1H-pyrazole-4-carboxamide], the IC50 at Human Calpain 2/NS1 (Column B) was below 3 µM; in assay [1] (setting [4]), above 25 µM; at Human Calpain 9/NS1 (Column C) it was below 3 µM; at Human Calpain 1/NS1 (Column A), below 3 µM; in assay [2] (Column E) it was above 25 µM.
